# Results from PMC8297771 (PLoS Pathogens, 2021).
# Like-named read-outs stand apart in the source and are kept apart here.
# Assays:
# [1] = test system: HIV-1NL4-3; assay: In vitro anti-viral assay in human PBMCs (RT activity readout); type: cell-based; conditions: for TI (TC50 / IC50): minimal TI from IC50 and 10 μM
# Description: (§1) For the assay with human PBMCs, PHA stimulated cells from at least two pooled healthy were infected with HIV-1 strains in 96-well plates. Test drug dilutions, which were prepared at a 2X concentration in microtiter tubes and 100 μL of each concentration (nine total concentrations), were placed in appropriate wells using the standard format. 50 μL of a predetermined dilution of virus stock was placed in each test well (final MOI ≅ 0.1). The PBMC cultures were maintained for 7 days following infection at 37 °C, 5% CO2. After this period, cell-free supernatant samples were collected for analysis of reverse transcriptase (RT) activity. All assays were conducted in triplicates. For RT assay, a microtiter plate-based reverse transcriptase (RT) reaction was utilized (Buckheit et al., AIDS Research and Human Retroviruses 7:295–302, 1991). Tritiated thymidine triphosphate (^3H-TTP, 80 Ci/mmol, NEN) is received in 1:1 dH2O: Ethanol at 1 mCi/mL. Poly rA:oligo dT template:primer (GE Healthcare) was prepared as a stock solution by combining 150 μL poly rA (20 mg/mL) with 0.5 mL oligo dT (20 units/mL) and 5.35 mL sterile dH2O followed by aliquoting (1.0 mL) and storage at—20°C. The RT reaction buffer was prepared fresh on a daily basis and consisted of 125 μL 1.0 M EGTA, 125 μL dH2O, 125 μL 20% Triton X100, 50 μL 1.0 M Tris (pH 7.4), 50 μL 1.0 M DTT, and 40 μL 1.0 M MgCl2. The final reaction mixture was prepared by combining 1 part ^3H-TTP, 4 parts dH2O, 2.5 parts poly rA:oligo dT stock and 2.5 parts reaction buffer. Ten microliters of this reaction mixture were placed in a round bottom microtiter plate and 15 μL of virus containing supernatant is added and mixed. The plate was incubated at 37°C for 60 mins. Following incubation, the reaction volume was spotted onto DE81 filter-mats (Wallac), washed 5 times for 5 mins each in a 5% sodium phosphate buffer or 2X SSC (Life Technologies). Next they were washed 2 times for 1 min each in distilled water, 2 times for 1 min each in 70% ethanol, and then dried. Incorporated radioactivity (counts per min, CPM) was quantified using standard liquid scintillation techniques. These PBMC analysis was conducted by fee to service through Southern Research Institute (Frederick, MD, USA). The IC50 were analyzed using GraphPad Prism (Version 9) and presented as means ± S.D. of the triplicates.
# [2] = test system: Ral-resistant (1556_1) clinical isolate; assay: as above; type: cell-based, HIV-1
# Description: as §1
# [3] = test system: Ral-resistant (4736_2) clinical isolate; assay: as above; type: cell-based, HIV-1
# Description: as §1
# [4] = test system: Ral-resistant (4736_4) clinical isolate; assay: as above; type: cell-based, HIV-1
# Description: as §1
# [5] = test system: Ral-resistant (8070_1) clinical isolate; assay: as above; type: cell-based, HIV-1; conditions: for TI (TC50 / IC50): human PBMCs, Ral-resistant (8070_1)
# Description: as §1
# [6] = test system: Ral-resistant (8070_2) clinical isolate; assay: as above; type: cell-based, HIV-1
# Description: as §1
# [7] = test system: human PBMCs; assay: Tissue culture cytotoxicity measurement in human PBMCs; type: cell-based; conditions: human PBMCs
# From the text: Multiple chemical scaffolds such as quinoline (BI224436, Fig 1A), benzothiazole (GS-9822, Fig 1B) and pyridine (KF116, Fig 1C) were previously explored for the discovery of ALLINIs. Here, we employed the pyrrolopyridine-based scaffold to synthesize an ALLINI candidate compound, STP0404 (Fig 1D). STP0404 harbors the tert-butoxy moiety that is common to other ALLINIs (Fig 1). First, we measured its in vitro anti-HIV-1 efficacy and cytotoxicity using various HIV-1 strains in multiple cell types, with cytotoxicity initially tested up to 10 μM (Table 1). […] The calculated in vitro minimum therapeutic index (TI) of STP0404 under these conditions was accordingly >25,000. For comparison, we employed two FDA-approved HIV-1 inhibitors, AZT (RT inhibitor) and Raltegravir (Ral, INSTI), alongside 5 different Ral-resistant clinical isolates (Table 1).
# [8] = test system: HIV-1 NL4-3; assay: In vitro anti-viral assay in MT4 cells; type: cell-based
# [9] = test system: MT4 cells; assay: Tissue culture cytotoxicity measurement in MT4 cells; type: cell-based
# From the text: Fig 1 ALLINI structures and STP0404 activities. […] Pyridine-based KF116, D. Pyrrolopyridine-based STP0404. The conserved chemical moiety containing tert-butoxy and carboxylic acid groups are marked by “]”.
# [10] = test system: HIV-1_89.6 passage 14 viral population (Y99H and A128T); assay: Susceptibility of STP0404-selected viral population, passage 14, in CEMx174 cells; type: cell-based; conditions: passage 14 viral population (Y99H and A128T) vs wild type HIV-1_89.6
# Description: CEM x174 cells infected with HIV primary isolate 89.6 were cultured in the presence of STP0404 at the concentration of IC90 determined earlier. At each passage, cells from original culture in the presence of inhibitor (0.75x10^6 cells) were mixed with equal amount of no-drug control cells to propagate, and viral replication was monitored by the production of p24 antigen in the supernatant. […] The population of drug-induced mutations at each passage mentioned above was determined by sequencing of at least 10 resulting transformants.
# CEM x174 cells were infected with cell-free viral supernatant collected during virus resistance assays above. […] The viral stocks were normalized by the amount of p24 capsid antigen, determined to infect CEMx174 cells at approximately 10% of populations (10,000 pg / 10^6 cells). […] Cell-free supernatants were measured for p24 antigen production 5 days post-infection. p89.6 plasmid was applied for Quickchange kit (Invitrogen) to create Y99H single, A128T single, Y99H/A128T double mutants as well as two natural variants (A124N and T125A), and these 89.6 variant viruses were generated by transfecting 293T cells and culturing the produced viruses in CEMx174 cells. The IC50 of STP0404 against respective viruses were analyzed using GraphPad Prism (Version 9) and presented as means ± S.D. of triplicates. […]
# [11] = test system: SIVmac239; assay: In vitro efficacy test against SIVmac239 in CEMx174 cells (p27); type: cell-based, SIV; conditions: p27 assay
# Description: CEMx174 cells were infected with HIV-1 primary isolate 89.6 (From infectious clone p89.6, NIH AIDS Reagent Program) at approximately at 10% of cell population determined by FACS analyses. To determine antiviral activity during virus production, STP0404 was added at concentration in the range of 0.1 nM—10 μM during media exchange at 4 hrs post-infection. DMSO was used as a negative control. Cell-free supernatants were measured for p24 antigen production, 5 days post-infection. The anti-HIV-1 efficacy of the two enantiomers of STP0404 were also determined by using the same protocol. All assays were conducted in triplicates. […] For SIVmac239, CEMx174 cells were infected with viral supernatant containing SIVmac293 at 50,000 TCID50/mL (kind gift from Dr. G. Silvestri, Emory Yerkes National Primate Research Center) with 100 μL/10^6 cells at varying concentrations of STP0404, BI224436, and Raltegravir, and the same above protocol was followed except for that p27 capsid antigen content was measured daily for 5 days post infection.
# Supplementary file ppat.1009671.s004.tiff: S1 Fig In vitro efficacy tests of STP0404, BI224436 and Raltegravir against SIVmac239 in CEMx174 cell culture. CEMx174 cells were infected with SIVmac239 with various concentrations of STP0404, BI224436, and Raltegravir, and the viral production was determined by p27 assay at 5 days post infection. […]
# [12] = test system: HIV-1_89.6; assay: In vitro anti-viral assay in CEMx174 cells (p24); type: cell-based; conditions: HIV-1 89.6 / CEMx174 cells; read-out: IC50
# Description: CEMx174 cells were infected with HIV-1 primary isolate 89.6 (From infectious clone p89.6, NIH AIDS Reagent Program) at approximately at 10% of cell population determined by FACS analyses. To determine antiviral activity during virus production, STP0404 was added at concentration in the range of 0.1 nM—10 μM during media exchange at 4 hrs post-infection. DMSO was used as a negative control. Cell-free supernatants were measured for p24 antigen production, 5 days post-infection. The anti-HIV-1 efficacy of the two enantiomers of STP0404 were also determined by using the same protocol. All assays were conducted in triplicates. The IC50 values were computed using GraphPad Prism (Version 9) and presented as means ± S.D. of the triplicates. For SIVmac239, CEMx174 cells were infected with viral supernatant containing SIVmac293 at 50,000 TCID50/mL (kind gift from Dr. G. Silvestri, Emory Yerkes National Primate Research Center) with 100 μL/10^6 cells at varying concentrations of STP0404, BI224436, and Raltegravir, and the same above protocol was followed except for that p27 capsid antigen content was measured daily for 5 days post infection.
# [13] = Human immunodeficiency virus 1, PBMC
# [14] = column under Ral-resistant (1556_1)
# [15] = column under Ral-resistant (4736_2)
# [16] = column under Ral-resistant (4736_4)
# [17] = column under Ral-resistant (8070_1)
# [18] = column under Ral-resistant (8070_2)
smiles,measurement,setting,value
Cc1nnc(C(=O)NC(C)(C)c2nc(C(=O)NCc3ccc(F)cc3)c(O)c(=O)n2C)o1 [Raltegravir],IC50,"[1]; Human immunodeficiency virus 1, NL43, PBMC",0.44 ± 0.74 nM
same,TI (TC50 / IC50),"[1]; human PBMCs, NL4-3",">22,700"
same,TI (TC50 / IC50),[2],~20
same,IC50,[2]; [13],> 500 nM
same,IC50,[3]; [13],> 50 nM
same,IC50,[4]; [13],36.5 ± 53.6 nM
same,TI (TC50 / IC50),"[4]; human PBMCs, Ral-resistant (4736_4)",>270
same,IC50,[5]; [13],> 1000 nM
same,TI (TC50 / IC50),[5],~10
same,TI (TC50 / IC50),[6],~100
same,IC50,[6]; [13],> 100 nM
same,TC50,"[7]; NL4-3, tested up to 10 μM",">10,000 nM"
same,TC50,[7]; [14],">10,000 nM"
same,TC50,[7]; [15],">10,000 nM"
same,TC50,[7]; [16],">10,000 nM"
same,TC50,[7]; [17],">10,000 nM"
same,TC50,[7]; [18],">10,000 nM"
same,TI (TC50 / IC50),[8]; HIV-1 NL4-3 / MT4 cells,"> 2,710"
same,IC50,"[8]; Human immunodeficiency virus 1, NL43, MT4",3.69 ± 2.8 nM
same,TC50,[9],"> 10,000 nM"
"Cc1nc2ccccc2c(-c2ccc3c4c(ccnc24)CCO3)c1[C@H](OC(C)(C)C)C(=O)O [BI224436, reference compound]",IC50 fold increase,[10],40.5 fold
same,inhibition of SIVmac239,[11],failed to inhibit
Cc1cn([C@H]2C[C@H](N=[N+]=[N-])[C@@H](CO)O2)c(=O)[nH]c1=O [AZT],IC50,"[1]; human PBMCs, NL4-3, mean of triplicates ± SD, read-out: IC50",8.92 ± 2.08 nM
same,TI (TC50 / IC50),"[1]; human PBMCs, NL4-3",">1,121"
same,IC50,[2],9.33 ± 0.22 nM
same,TI (TC50 / IC50),[2],">1,000"
same,TI (TC50 / IC50),"[3]; human PBMCs, Ral-resistant (4736_2)",">23,000"
same,IC50,"[3]; human PBMCs, Ral-resistant (4736_2), read-out: IC50",0.42 ± 0.37 nM
same,IC50,"[4]; human PBMCs, Ral-resistant (4736_4), read-out: IC50",6.71 ± 5.74 nM
same,TI (TC50 / IC50),[5],">1,490"
same,IC50,[6],79.9 ± 11.8 nM
same,TI (TC50 / IC50),[6],>125
same,TC50,"[7]; NL4-3, tested up to 10 μM",">10,000 nM"
same,TC50,[7]; [14],">10,000 nM"
same,TC50,[7]; [15],">10,000 nM"
same,TC50,[7]; [16],">10,000 nM"
same,TC50,[7]; [17],">10,000 nM"
same,TC50,[7]; [18],">10,000 nM"
same,TI (TC50 / IC50),[8]; HIV-1 NL4-3 / MT4 cells,> 179
same,IC50,"[8]; HIV-1 NL4-3 / MT4 cells, read-out: IC50",56 ± 23.5 nM
same,TC50,[9],"> 10,000 nM"
Cc1nc2c(c(C)c(C)n2Cc2cnn(C)c2)c(-c2ccc(Cl)cc2)c1[C@H](OC(C)(C)C)C(=O)O [(S) form],IC50,[12],1.3 nM
